Test results published in publication PMC4493701, “Quantitative and qualitative analysis of the novel antitumor 1,3,4-oxadiazole derivative (GLB) and its metabolites using HPLC-UV and UPLC-QTOF-MS” (Scientific Reports, 2015).
Where two headings read alike, the source gives them in different places.

Columns and labels:
[1] = Pharmacokinetic study in rats after single oral administration of GLB (HPLC-UV in plasma); type: in vivo, Sprague-Dawley rats; settings: for concentration at 0.5 h / concentration at 1 h / concentration at 2 h / concentration at 4 h / concentration at 6 h / concentration at 8 h / concentration at 12 h / concentration at 24 h / concentration at 36 h / concentration at 48 h / concentration at 72 h / concentration at 96 h: oral; for concentration at 0.5 h: 0.5 h after single oral GLB 100 mg/kg; for concentration at 1 h: 1 h after single oral GLB 100 mg/kg; for concentration at 2 h: 2 h after single oral GLB 100 mg/kg; for concentration at 4 h: 4 h after single oral GLB 100 mg/kg; for concentration at 6 h: 6 h after single oral GLB 100 mg/kg; for concentration at 8 h: 8 h after single oral GLB 100 mg/kg; for concentration at 12 h: 12 h after single oral GLB 100 mg/kg; for concentration at 24 h: 24 h after single oral GLB 100 mg/kg; for concentration at 48 h: 48 h after single oral GLB 100 mg/kg; for concentration at 72 h: 72 h after single oral GLB 100 mg/kg; for concentration at 96 h: 96 h after single oral GLB 100 mg/kg; for Tmax / half-life / AUC(0-inf) / AUC(0-t) / Cmax: rat plasma, single oral GLB 100 mg/kg; for AUC(0-t): read-out: AUC(0-96)
Procedure: The validated bioanalytical method was applied to the detection of GLB concentration in plasma after a single oral administration of GLB (100 mg/kg, n = 6) in rats. At 0.5 h after oral administration, the prototype drug of GLB was detected in rat plasma. The peak concentration of GLB was at 6 h (2.78 ± 0.89 μg/mL) with quantifiable at the 36 h (0.14 ± 0.18 μg/mL). At 96 h time point, low concentration of GLB was still detectable in rat plasma (Fig. 2B).
HPLC-UV analyses were performed with a DIONEX Ultimate 3000 HPLC system (Thermo Fisher Scientific, MA, USA), which included a double-ternary pump (DGP-3600SD), a temperature controlled automatic sampler (WPS-3000SL), a column temperature box (TCC-3000SD), and a ultraviolet (UV) detector (VWD-3400). The UV detection wavelength was set at 300 nm. The chromatographic separation was achieved on a reversed-phase Alltima C18 analytical column (150 mm × 4.6 mm; 5 μm), and the mobile phase was the mixture of acetonitrile and distilled water (65:35, v/v), running at the flow rate of 1.0 mL/min. The temperature of column box was kept at 25 °C. The injection volume was 20 μL. The HPLC data was processed using Chromeleon^TM 6.8 software (Thermo Fisher Scientific, MA, USA).
Sprague-Dawley rats (Male, 210 ± 20 g, 7–8 weeks) were provided by the Department of Experimental Animal, Beijing University (Beijing, China). Environmental controls for the animal room were set at 22 ± 3 °C with 50 ± 20% relative humidity. This animal study was performed in strict accordance with the recommendations in the Guide for the Care and Use of Laboratory Animals of China Association for Laboratory Animal Science. All animal care and experimental protocols were approved by the Animal Care Committee of Peking University Health Science Center. All sacrifice was performed under pentobarbitone anesthesia, and every effort was made to minimize suffering.
Rats were fasted 12 h prior to the study and were allowed access to food 4 h after oral dosing. Eighteen rats were divided randomly into six groups and rats were sampled at interval in each group. The blood samples at each time point were collected from six rats. The rats were dosed with a suspension of GLB (100 mg/kg, in 0.5% sodium carboxymethyl cellulose CMC-Na solution) and the blood samples were collected at the predose, 0.5, 1, 2, 4, 6, 8, 12, 24, 36, 48, 72 and 96 h post-dosing. The blood samples were centrifuged at 2800 rpm (1473 × g) for 20 min and the plasma was stored at −20 °C until analyzed.
The 400 μL plasma sample was transferred into a glass tube, followed by the addition of 25 μL of IS and 2 mL of extraction solvent ethyl acetate. The mixture was vortexed for 3 min to extract GLB and IS from plasma sample and then centrifuged at 2800 rpm (1473 × g) for 20 min. The upper organic phase was transferred into a glass tube. The sample was extracted twice with 2 mL of ethyl acetate for liquid-liquid extraction. The combined upper organic phases were evaporated to dryness at 37 °C under a gentle stream of nitrogen gas. The residue was reconstituted with 100 μL of methanol and was injected 20 μL into the HPLC system. In addition, in order to perform mass spectrometry analyses, the residue was reconstituted with 150 μL of methanol-water (v/v, 1:1), and then centrifuged at 14000 rpm (17968 × g) for 15 min, the upper liquid was transferred into sample vials and 10 μL was injected for UPLC-QTOF/MS analysis.
The pharmacokinetic parameters of GLB were calculated by a non-compartmental pharmacokinetic analysis method using Drug and Statistical Version 3.0 (DAS 3.0) software (the Mathematical Pharmacology Committee, Chinese Pharmacological Society, China). The maximum peak concentration of the drug in plasma (Cmax) and the time to reach the maximum concentration (Tmax) were estimated from the experimental data. The area under the plasma concentration-time curves from 0 to infinity (i.e., AUC0-∞) and from 0 to 96 h (AUC0-96) were calculated by the trapezoidal summation. […]

[2] = test system: human carcinoma cell lines including uterine cervix cancer cells, pulmonary adenocarcinoma cells, and prostate cancer cells (PC-3M); parameters: method as in earlier work; settings: multiple human carcinoma cell lines; cited from earlier work
[3] = male, Sprague-Dawley, rat, plasma, 100 mg/kg, rat, M1/M2 relative to GLB standard curve
[4] = male, Sprague-Dawley, rat, plasma, 100 mg/kg, 36 h after single oral GLB 100 mg/kg, rat, M1/M2 relative to GLB standard curve
[5] = male, Sprague-Dawley, rat, plasma, po, 100 mg/kg, n = 6, read-out: Tmax
[6] = male, Sprague-Dawley, n = 6, M1/M2 relative concentrations from GLB standard curve

Structure (SMILES)	concentration at 0.5 h [1, 3] [µg/mL]	concentration at 1 h [1, 3] [µg/mL]	concentration at 2 h [1, 3] [µg/mL]	concentration at 4 h [1, 3] [µg/mL]	concentration at 6 h [1, 3] [µg/mL]	concentration at 8 h [1, 3] [µg/mL]	concentration at 12 h [1, 3] [µg/mL]	concentration at 24 h [1, 3] [µg/mL]	concentration at 36 h [1, 4] [µg/mL]	concentration at 48 h [1, 3] [µg/mL]	concentration at 72 h [1, 3] [µg/mL]	concentration at 96 h [1, 3] [µg/mL]	Tmax [1, 5] [h]	half-life ([1]; male, Sprague-Dawley, n = 6) [h]	AUC(0-inf) [1, 6] [µg·h/mL]	AUC(0-t) [1, 6] [µg·h/mL]	further results
CC(=O)N1N=C(c2ccc(Br)cc2)OC1(C1OC(C)(C)OC1C(=O)O)C1(O)COC(C)(C)O1 (centres unmarked) [M1]	0.027 ± 0.014	0.091 ± 0.021	0.242 ± 0.055	0.336 ± 0.059	0.517 ± 0.113	0.443 ± 0.137	0.39 ± 0.114	0.185 ± 0.182	0.037 ± 0.015	0.024 ± 0.02	0.015 ± 0.009	0.025 ± 0.011	6	11.3 ± 5.94	10.1 ± 3.34	9.66 ± 3.38	Cmax ([1]; male, Sprague-Dawley, n = 6, M1/M2 relative concentrations from GLB standard curve, read-out: Cmax): 0.54 ± 0.1 µg/mL; Tmax ([1]; n = 6): 7.33 ± 2.73 h
CC(=O)N1N=C(c2ccc(Br)cc2)OC12C1OC(C)(C)OC1COC21COC(C)(C)O1 (centres unmarked) [GLB, Fructose-based 3-acetyl-2,3-dihydro-1,3,4-oxadiazole]	0.043 ± 0.151	0.673 ± 0.065	1.41 ± 0.21	1.46 ± 0.21	2.78 ± 0.887	1.6 ± 0.656	1.47 ± 0.672	0.262 ± 0.241	0.139 ± 0.183	0.058 ± 0.063	0.011 ± 0.005	0.016 ± 0.017	6	9.24 ± 4.74	33.5 ± 9.05	33.3 ± 9.1	Plasma concentration ([1]; 36 h after single oral GLB 100 mg/kg, rat, M1/M2 relative to GLB standard curve): 0.14 ± 0.18 µg/mL; Cmax ([1]; male, Sprague-Dawley, n = 6, text, read-out: Cmax): 2.78 ± 0.89 µg/mL; Cmax ([1]; n = 6, M1/M2 relative concentrations from GLB standard curve): 2.78 ± 0.89 µg/mL; Effect on proliferation [2]: inhibited proliferation
